pIC50: −log10 of the molar value.
What was measured:
NAMPT [1] = target: T1, NAMPT (Homo sapiens, UniProt P43490); assay: TR-FRET Binding Assay of NAMPT with PRPP; settings: 2 nM NAMPT, 2 nM probe, 200 µM PRPP and 2.5 mM ATP, equilibrated 16 hours
Procedure: Time-Resolved Fluorescence Resonance Energy Transfer (TR-FRET) Binding Assay of NAMPT with PRPP
Compound handling and data processing were identical to the assay in the absence of substrates (above). Final concentrations were 1× assay buffer, 2% DMSO, 2 nM NAMPT, 2 nM probe, 1 nM Tb-anti-His antibody (Invitrogen #PV5895), 200 µM PRPP and 2.5 mM ATP. Reactions were equilibrated for 16 hours prior to measurement to allow for potential enzymatic modification of test compounds.

NAMPT [2] = target: T1, NAMPT; assay: Time-Resolved Fluorescence Resonance Energy Transfer (TR-FRET) Binding Assay of NAMPT; settings: 6.8 nM NAMPT, 200 nM probe, equilibrated 3 hours, no substrates
Summary of the method: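 Compound was mixed with enzyme, probe and antibody and equilibrated 3 h at room temperature. TR-FRET read at Ex 337 nm, Em 520/495 nm. Ratios were normalized to controls and fitted to a four-parameter logistic equation for IC50.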

PC3 cells = assay: NAMPT Cell Proliferation Assay (Cell Titer Glo); format: cell-based; settings: Homo sapiens, PC-3, 120 h, incubated 5 days, cell viability
Summary of the method: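 PC3 cells (500/well, RPMI with 10% heat-inactivated FBS) were exposed to 10-fold compound dilutions from […] for 5 days at 37 °C, 5% CO2. Viability was read with Cell Titer Glo; IC50 from sigmoidal fit of percent inhibition.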

T1 sequence (P43490 whole entry): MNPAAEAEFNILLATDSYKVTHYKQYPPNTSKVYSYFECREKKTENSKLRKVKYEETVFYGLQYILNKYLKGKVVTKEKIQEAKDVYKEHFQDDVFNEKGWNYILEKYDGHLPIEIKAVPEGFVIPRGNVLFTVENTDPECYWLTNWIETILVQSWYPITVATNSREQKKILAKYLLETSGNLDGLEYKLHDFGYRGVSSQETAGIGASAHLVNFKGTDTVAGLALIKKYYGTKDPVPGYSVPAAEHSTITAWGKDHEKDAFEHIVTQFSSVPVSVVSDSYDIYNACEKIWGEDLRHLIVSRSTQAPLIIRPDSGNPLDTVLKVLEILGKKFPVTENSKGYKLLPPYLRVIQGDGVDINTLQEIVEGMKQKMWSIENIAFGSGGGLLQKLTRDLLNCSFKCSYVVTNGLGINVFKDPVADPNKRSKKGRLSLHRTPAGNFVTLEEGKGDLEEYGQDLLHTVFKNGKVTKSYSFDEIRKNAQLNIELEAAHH

| Compound | pIC50 (NAMPT [1]) | pIC50 (NAMPT [2]) | pIC50 (PC3 cells) |
| --- | --- | --- | --- |
| O=C(CC1CCOCC1)N1CCC(Oc2ccc(NC(=O)N3CC(c4cncc(F)c4)C3)cc2)CC1 [Example 3, 3-(5-fluoropyridin-3-yl)-N-(4-{[1-(tetrahydro-2H-pyran-4-ylacetyl)piperidin-4-yl]oxy}phenyl)azetidine-1-carboxamide] | 8.12 | 5.91 | 5.33 |
| CC(C)(O)C(=O)N1CCC(Oc2ccc(NC(=O)N3CC(c4cccnc4)C3)cc2)CC1 [Example 7, N-(4-{[1-(2-hydroxy-2-methylpropanoyl)piperidin-4-yl]oxy}phenyl)-3-(pyridin-3-yl)azetidine-1-carboxamide] | 9.46 | 7.24 | 7.41 |
| Cc1ccc(C(=O)N2CC[C@@H](Oc3ccc(NC(=O)N4CC(c5cccnc5)C4)cc3)C2)s1 [Example 323, N-[4-({(3R)-1-[(5-methylthiophen-2-yl)carbonyl]pyrrolidin-3-yl}oxy)phenyl]-3-(pyridin-3-yl)azetidine-1-carboxamide] | 9.71 | 7.38 | 7.29 |
| O=C(Nc1ccc(OC2CN(C(=O)[C@@H]3CCCO3)C2)cc1)N1CC(c2cccnc2)C1 [Example 29, 3-(pyridin-3-yl)-N-[4-({1-[(2S)-tetrahydrofuran-2-ylcarbonyl]azetidin-3-yl}oxy)phenyl]azetidine-1-carboxamide] | 9.61 | 7.27 | 7.18 |
| CC1(C(=O)N2CCC(c3ccc(NC(=O)N4CC(c5cccnc5)C4)cc3)CC2)CCCCC1 [Example 181, N-(4-{1-[(1-methylcyclohexyl)carbonyl]piperidin-4-yl}phenyl)-3-(pyridin-3-yl)azetidine-1-carboxamide] | 9.59 | 8.09 | 7.61 |
| CN1CCN(CC(=O)N2CC(Oc3ccc(NC(=O)N4CC(c5cccnc5)C4)cc3)C2)CC1 [Example 149, N-[4-({1-[(4-methylpiperazin-1-yl)acetyl]azetidin-3-yl}oxy)phenyl]-3-(pyridin-3-yl)azetidine-1-carboxamide] | 9.66 | 7.66 | 7.12 |
| O=C(CN1CCCC1)N1CC[C@@H](Oc2ccc(NC(=O)N3CC(c4cccnc4)C3)cc2)C1 [Example 304, 3-(pyridin-3-yl)-N-(4-{[(3R)-1-(pyrrolidin-1-ylacetyl)pyrrolidin-3-yl]oxy}phenyl)azetidine-1-carboxamide] | 9.46 | 6.23 | 6.58 |
| CCCC(C)C(=O)N1CC(Oc2ccc(NC(=O)N3CC(c4cccnc4)C3)cc2)C1 (stereo not shown) [Example 136, N-(4-{[1-(2-methylpentanoyl)azetidin-3-yl]oxy}phenyl)-3-(pyridin-3-yl)azetidine-1-carboxamide] | 9.26 | 7.82 | 8.13 |
| CCOCC(=O)N1CC[C@@H](Oc2ccc(NC(=O)N3CC(c4cccnc4)C3)cc2)C1 [Example 328, N-(4-{[(3R)-1-(ethoxyacetyl)pyrrolidin-3-yl]oxy}phenyl)-3-(pyridin-3-yl)azetidine-1-carboxamide] | 9.46 | 6.80 | 7.28 |
| O=C(CCC(F)(F)F)N1CC(Oc2ccc(NC(=O)N3CC(c4cccnc4)C3)cc2)C1 [Example 126, 3-(pyridin-3-yl)-N-(4-{[1-(4,4,4-trifluorobutanoyl)azetidin-3-yl]oxy}phenyl)azetidine-1-carboxamide] | 9.40 | 7.84 | 8.13 |
| CCCC(=O)N1CC(c2ccc(NC(=O)N3CC(c4cccnc4)C3)cc2)C1 [Example 111, N-[4-(1-butanoylazetidin-3-yl)phenyl]-3-(pyridin-3-yl)azetidine-1-carboxamide] | 9.53 | 7.27 | 7.53 |
| CN1CCN(CCC(=O)N2CCC(Oc3ccc(NC(=O)N4CC(c5cccnc5)C4)cc3)CC2)CC1 [Example 38, N-[4-({1-[3-(4-methylpiperazin-1-yl)propanoyl]piperidin-4-yl}oxy)phenyl]-3-(pyridin-3-yl)azetidine-1-carboxamide] | 9.70 | 7.46 | 7.08 |
| CC1CC1C(=O)N1CCC(c2ccc(NC(=O)N3CC(c4cccnc4)C3)cc2)CC1 (stereo not shown) [Example 164, N-(4-{1-[(2-methylcyclopropyl)carbonyl]piperidin-4-yl}phenyl)-3-(pyridin-3-yl)azetidine-1-carboxamide] | 9.50 | 7.80 | 7.59 |
| CC(C)CCC(=O)N1CC(c2ccc(NC(=O)N3CC(c4cccnc4)C3)cc2)C1 [Example 201, N-{4-[1-(4-methylpentanoyl)azetidin-3-yl]phenyl}-3-(pyridin-3-yl)azetidine-1-carboxamide] | 9.50 | 7.36 |  |
| CC(C)CCN1CCC(c2ccc(NC(=O)N3CC(c4cccnc4)C3)cc2)CC1 [Example 236, N-{4-[1-(3-methylbutyl)piperidin-4-yl]phenyl}-3-(pyridin-3-yl)azetidine-1-carboxamide] | 9.68 | 6.18 |  |
| Cc1ccc(C(=O)N2CC(c3ccc(NC(=O)N4CC(c5cccnc5)C4)cc3)C2)s1 [Example 223, N-(4-{1-[(5-methylthiophen-2-yl)carbonyl]azetidin-3-yl}phenyl)-3-(pyridin-3-yl)azetidine-1-carboxamide] | 9.41 | 7.67 |  |
| O=C(CN1CCOCC1)N1CC(c2ccc(NC(=O)N3CC(c4cccnc4)C3)cc2)C1 [Example 221, N-{4-[1-(morpholin-4-ylacetyl)azetidin-3-yl]phenyl}-3-(pyridin-3-yl)azetidine-1-carboxamide] | 9.50 | 6.82 |  |
| O=C(Nc1ccc(C2CN(C(=O)c3nccs3)C2)cc1)N1CC(c2cccnc2)C1 [Example 228, 3-(pyridin-3-yl)-N-{4-[1-(1,3-thiazol-2-ylcarbonyl)azetidin-3-yl]phenyl}azetidine-1-carboxamide] | 9.51 | 7.71 |  |
| O=C(Nc1ccc(C2CCN(CCC3CC3)CC2)cc1)N1CC(c2cccnc2)C1 [Example 242, N-{4-[1-(2-cyclopropylethyl)piperidin-4-yl]phenyl}-3-(pyridin-3-yl)azetidine-1-carboxamide] | 9.65 | 6.43 |  |
| CC1(C(=O)N2CC(c3ccc(NC(=O)N4CC(c5cccnc5)C4)cc3)C2)CC1 [Example 227, N-(4-{1-[(1-methylcyclopropyl)carbonyl]azetidin-3-yl}phenyl)-3-(pyridin-3-yl)azetidine-1-carboxamide] | 9.53 | 7.16 |  |
| CC(=O)N[C@@H](CC(C)C)C(=O)N1CC(c2ccc(NC(=O)N3CC(c4cccnc4)C3)cc2)C1 [Example 209, N-{4-[1-(N-acetyl-L-leucyl)azetidin-3-yl]phenyl}-3-(pyridin-3-yl)azetidine-1-carboxamide] | 9.16 | 7.62 |  |
| CC1(C(=O)N2CC(c3ccc(NC(=O)N4CC(c5cccnc5)C4)cc3)C2)CCCCC1 [Example 215, N-(4-{1-[(1-methylcyclohexyl)carbonyl]azetidin-3-yl}phenyl)-3-(pyridin-3-yl)azetidine-1-carboxamide] | 9.53 | 7.56 |  |
| O=C(CCC(F)(F)F)N1CC(c2ccc(NC(=O)N3CC(c4cccnc4)C3)cc2)C1 [Example 213, 3-(pyridin-3-yl)-N-{4-[1-(4,4,4-trifluorobutanoyl)azetidin-3-yl]phenyl}azetidine-1-carboxamide] | 9.45 | 7.06 |  |
| Cn1cccc1C(=O)N1CC(c2ccc(NC(=O)N3CC(c4cccnc4)C3)cc2)C1 [Example 225, N-(4-{1-[(1-methyl-1H-pyrrol-2-yl)carbonyl]azetidin-3-yl}phenyl)-3-(pyridin-3-yl)azetidine-1-carboxamide] | 9.57 | 7.85 |  |
| CC(C)(C)CN1CC(c2ccc(NC(=O)N3CC(c4cccnc4)C3)cc2)C1 [Example 254, N-{4-[1-(2,2-dimethylpropyl)azetidin-3-yl]phenyl}-3-(pyridin-3-yl)azetidine-1-carboxamide] | 9.76 | 6.61 |  |
| CCCC(C)CN1CCC(c2ccc(NC(=O)N3CC(c4cccnc4)C3)cc2)CC1 (stereo not shown) [Example 234, N-{4-[1-(2-methylpentyl)piperidin-4-yl]phenyl}-3-(pyridin-3-yl)azetidine-1-carboxamide] | 9.28 | 6.12 |  |
| CC(=O)N1CC(c2ccc(NC(=O)N3CC(c4cccnc4)C3)cc2)C1 [Example 217, N-[4-(1-acetylazetidin-3-yl)phenyl]-3-(pyridin-3-yl)azetidine-1-carboxamide] | 9.49 | 6.56 |  |
| O=C(Nc1ccc(C2CN(C(=O)C3CCCCC3)C2)cc1)N1CC(c2cccnc2)C1 [Example 211, N-{4-[1-(cyclohexylcarbonyl)azetidin-3-yl]phenyl}-3-(pyridin-3-yl)azetidine-1-carboxamide] | 9.47 | 7.25 |  |
| CC1CC1C(=O)N1CC(c2ccc(NC(=O)N3CC(c4cccnc4)C3)cc2)C1 (stereo not shown) [Example 199, N-(4-{1-[(2-methylcyclopropyl)carbonyl]azetidin-3-yl}phenyl)-3-(pyridin-3-yl)azetidine-1-carboxamide] | 9.45 | 6.89 |  |
| O=C(Nc1ccc(C2CCN(CC3CCCCC3)CC2)cc1)N1CC(c2cccnc2)C1 [Example 232, N-{4-[1-(cyclohexylmethyl)piperidin-4-yl]phenyl}-3-(pyridin-3-yl)azetidine-1-carboxamide] | 9.74 | 6.45 |  |

From US9296723B2, “NAMPT inhibitors” (AbbVie Inc., priority 2012, dated 2016)
